# Data reported in article PMC12396409, “Screening and hit evaluation of a microbial metabolite library against the pathogenic Plasmodium falciparum and Toxoplasma gondii parasites” (International Journal for Parasitology: Drugs and Drug …, 2025).
# Read-outs that look alike come from different tables or passages of the source.
# Columns and labels:
# [1] = system: P. falciparum 3D7 parasites; assay: P. falciparum growth inhibition assay, 1-cycle (72 h treatment), SYBR DNA staining (library screen at 2 μg/mL and dose-response); assay type: cell-based, Plasmodium falciparum; conditions: for activity at 2 µg/mL: Plasmodium falciparum
# [2] = system: P. falciparum 3D7 parasites; assay: P. falciparum growth inhibition assay, 2-cycle (120 h treatment), delayed-death screen and dose-response; assay type: cell-based, Plasmodium falciparum; conditions: for activity at 2 µg/mL: Plasmodium falciparum
# [3] = system: T. gondii RH strain (RH-Tub-eYFP) tachyzoites; assay: microbe, parasite or virus in culture; assay type: cell-based, Toxoplasma gondii; conditions: 72 h; for percent parasite growth at 2 µg/mL: Toxoplasma gondii
# [4] = P. falciparum, 72 h, parasite screen 2 μg/mL, % growth, replicate 1
# [5] = P. falciparum, 72 h, parasite screen 2 μg/mL, % growth, replicate 2
# [6] = P. falciparum, 120 h, parasite screen 2 μg/mL, % growth, replicate 1
# [7] = P. falciparum, 120 h, parasite screen 2 μg/mL, % growth, replicate 2
# [8] = T. gondii, parasite screen 2 μg/mL, % growth, replicate 1
# [9] = T. gondii, parasite screen 2 μg/mL, % growth, replicate 2
# [10] = library screen at 2 μg/mL, 72 h, % growth, replicate 1
# [11] = library screen at 2 μg/mL, 72 h, % growth, replicate 2
# [12] = library screen at 2 μg/mL, 120 h, % growth, replicate 1
# [13] = library screen at 2 μg/mL, 120 h, % growth, replicate 2
# [14] = library screen at 2 μg/mL, % growth, replicate 1
# [15] = library screen at 2 μg/mL, % growth, replicate 2
smiles,measurement,setting,value
CCO[C@@H]1[C@@H](OC)[C@H](C)O[C@@H](O[C@@H]2C[C@H]3CC[C@@H]4[C@@H](C=C5C(=O)[C@H](C)[C@@H](O)CCC[C@H](CC)OC(=O)C[C@H]54)[C@@H]3C2)[C@@H]1OC,Pf_72h_%Growth_Rep1,[1]; [4],35.55%
same,Pf_72h_%Growth_Rep2,[1]; [5],25.61%
same,Pf_120h_%Growth_Rep1,[2]; [6],31.22%
same,Pf_120h_%Growth_Rep2,[2]; [7],24.15%
same,Tg_72h_%Growth_Rep1,[3]; [8],110.35%
same,Tg_72h_%Growth_Rep2,[3]; [9],84.17%
CC1(C)C=Cc2c(ccc3ccc(=O)oc23)O1 [Seselin],Pf_72h_%Growth_Rep1,[1]; [4],72.86%
same,Pf_72h_%Growth_Rep2,[1]; [5],126.42%
same,Pf_120h_%Growth_Rep1,[2]; [6],59.04%
same,Pf_120h_%Growth_Rep2,[2]; [7],133.69%
same,Tg_72h_%Growth_Rep1,[3]; [8],115.94%
same,Tg_72h_%Growth_Rep2,[3]; [9],77.58%
CO[C@H]1[C@H](O)C[C@@H](O[C@@H]2C[C@H](Oc3cc4cc5c(c(O)c4c(O)c3C)C(=O)[C@@H](O[C@H]3C[C@H](O[C@H]4C[C@H](O[C@H]6C[C@@](C)(O)[C@@H](OC(=O)C(C)C)[C@H](C)O6)[C@H](O)[C@@H](C)O4)[C@H](O)[C@@H](C)O3)[C@H]([C@H](OC)C(=O)[C@@H](O)[C@@H](C)O)C5)O[C@H](C)[C@H]2OC(C)=O)O[C@@H]1C [Chromomycin A2],activity at 2 µg/mL,"[1]; 3D7, 72 h, P. falciparum, 72 h, screen at 2 μg/mL, replicate 1, read-out: Pf_72h_%Growth_Rep1",6.05%
same,activity at 2 µg/mL,"[1]; 3D7, 72 h, P. falciparum, 72 h, screen at 2 μg/mL, replicate 2, read-out: Pf_72h_%Growth_Rep2",1.3%
same,activity at 2 µg/mL,"[2]; 3D7, 120 h, P. falciparum, 120 h, screen at 2 μg/mL, replicate 1, read-out: Pf_120h_%Growth_Rep1",3.01%
same,activity at 2 µg/mL,"[2]; 3D7, 120 h, P. falciparum, 120 h, screen at 2 μg/mL, replicate 2, read-out: Pf_120h_%Growth_Rep2",9.04%
same,percent parasite growth at 2 µg/mL,"[3]; T. gondii, screen at 2 μg/mL, replicate 1, read-out: Tg_72h_%Growth_Rep1",2.51%
same,percent parasite growth at 2 µg/mL,"[3]; T. gondii, screen at 2 μg/mL, replicate 2, read-out: Tg_72h_%Growth_Rep2",1.82%
CC[C@H]1OC(=O)[C@H](C)[C@@H](O[C@H]2C[C@@](C)(OC)[C@@H](O)[C@H](C)O2)[C@H](C)[C@@H](O[C@@H]2O[C@H](C)C[C@H](N(C)C)[C@H]2O)[C@](C)(O)C[C@@H](C)C(=O)[C@H](C)[C@@H](O)[C@H]1C [Erythromycin B],Pf_72h_%Growth_Rep1,[1]; [10],77.77%
same,Pf_72h_%Growth_Rep2,[1]; [11],67.71%
same,Pf_120h_%Growth_Rep1,[2]; [12],64.18%
same,Pf_120h_%Growth_Rep2,[2]; [13],47.52%
same,Tg_72h_%Growth_Rep1,[3]; [14],53.14%
same,Tg_72h_%Growth_Rep2,[3]; [15],48.82%
CCC(C)C1OC2(CCC1C)CC1CC(CC=C(C)C(OC3CC(OC)C(O)C(C)O3)C(C)C=CC=C3COC4C(O)C(C)=CC(C(=O)O1)C34O)O2 (stereo not drawn) [BIA-I1150],Pf_72h_%Growth_Rep1,"[1]; P. falciparum 3D7, 72 h, library screen at 2 μg/mL, % growth, replicate 1",84.82%
same,Pf_72h_%Growth_Rep2,"[1]; P. falciparum 3D7, 72 h, library screen at 2 μg/mL, % growth, replicate 2",14.34%
same,Pf_120h_%Growth_Rep1,"[2]; P. falciparum 3D7, 120 h, library screen at 2 μg/mL, % growth, replicate 1",91.15%
same,Pf_120h_%Growth_Rep2,"[2]; P. falciparum 3D7, 120 h, library screen at 2 μg/mL, % growth, replicate 2",112.03%
same,Tg_72h_%Growth_Rep1,"[3]; T. gondii RH, library screen at 2 μg/mL, % growth, replicate 1",134.07%
same,Tg_72h_%Growth_Rep2,"[3]; T. gondii RH, library screen at 2 μg/mL, % growth, replicate 2",88.13%
C=C1CCO[C@]2([C@@H](O)[C@@](C)(O)CO)NC(=O)[C@@]1(O)NC2=O [Bicyclomycin],activity at 2 µg/mL,"[1]; 3D7, library screen at 2 μg/mL, 72 h, % growth, replicate 1, read-out: Pf_72h_%Growth_Rep1",82.6%
same,activity at 2 µg/mL,"[1]; 3D7, library screen at 2 μg/mL, 72 h, % growth, replicate 2, read-out: Pf_72h_%Growth_Rep2",88%
same,activity at 2 µg/mL,"[2]; 3D7, library screen at 2 μg/mL, 120 h, % growth, replicate 1, read-out: Pf_120h_%Growth_Rep1",102%
same,activity at 2 µg/mL,"[2]; 3D7, library screen at 2 μg/mL, 120 h, % growth, replicate 2, read-out: Pf_120h_%Growth_Rep2",86.7%
same,percent parasite growth at 2 µg/mL,"[3]; library screen at 2 μg/mL, % growth, replicate 1, read-out: Tg_72h_%Growth_Rep1",126%
same,percent parasite growth at 2 µg/mL,"[3]; library screen at 2 μg/mL, % growth, replicate 2, read-out: Tg_72h_%Growth_Rep2",100%
CC(C)=CCCC(C)C1CCC2(C)CC3C(C(=O)CC3(C)O)C(C=O)=CCC12 (stereo not drawn) [BIA-O1199],Pf_72h_%Growth_Rep1,"[1]; P. falciparum 3D7, 72 h, parasite screen at 2 μg/mL, % growth, replicate 1",-0.50%
same,Pf_72h_%Growth_Rep2,"[1]; P. falciparum 3D7, 72 h, parasite screen at 2 μg/mL, % growth, replicate 2",-3.29%
same,Pf_120h_%Growth_Rep1,"[2]; P. falciparum 3D7, 120 h, parasite screen at 2 μg/mL, % growth, replicate 1",3.94%
same,Pf_120h_%Growth_Rep2,"[2]; P. falciparum 3D7, 120 h, parasite screen at 2 μg/mL, % growth, replicate 2",138.56%
same,Tg_72h_%Growth_Rep1,"[3]; T. gondii, parasite screen at 2 μg/mL, % growth, replicate 1",7.63%
same,Tg_72h_%Growth_Rep2,"[3]; T. gondii, parasite screen at 2 μg/mL, % growth, replicate 2",89.80%
"COC1=C(N)C(=O)c2nc(-c3nc(C(=O)O)c(C)c(-c4cccc(OC)c4O)c3N)ccc2C1=O [Desmethoxystreptonigrin, 10'-]",Pf_72h_%Growth_Rep1,[1]; [10],2.87%
same,Pf_72h_%Growth_Rep2,[1]; [11],4.81%
same,Pf_120h_%Growth_Rep1,[2]; [12],0.15%
same,Pf_120h_%Growth_Rep2,[2]; [13],8.14%
same,Tg_72h_%Growth_Rep1,[3]; [14],4.18%
same,Tg_72h_%Growth_Rep2,[3]; [15],4.20%
